Experimental data from EP0549006A2, “Ammonium and phosphonium salts and their use as biocides” (FMC CORPORATION (UK) LIMITED, priority 1991, dated 1993).

What was measured:
Serratia marcescens = assay: Bacterial minimal inhibiting concentration (MIC) in liquid culture, turbidity evaluation; assay type: cell-based; conditions: strain B: Serratia marcescens; Caso Peptone Bouillon, 24 hours at 30 °C; tested at 10, 30, 60 and 100 mg/l
Enterobacter aerogenes = assay: as above; assay type: cell-based; conditions: strain C: Enterobacter aerogenes, Caso Peptone Bouillon, 24 hours at 30 °C, tested at 10, 30, 60 and 100 mg/l
Proteus vulgaris = assay: as above; assay type: cell-based; conditions: strain E: Proteus vulgaris; Caso Peptone Bouillon, 24 hours at 30 °C; tested at 10, 30, 60 and 100 mg/l
bacterial mixed culture = assay type: cell-based; conditions: 24 hours at 30 °C in Tyrode solution, growth on Caso Peptone plates; for Effect after 24 h 10: 10 mg/l; for Effect after 24 h 30: 30 mg/l; for Effect after 24 h 60: 60 mg/l
Pseudomonas fluorescens = assay: Bacterial minimal inhibiting concentration (MIC) in liquid culture, turbidity evaluation; assay type: cell-based; conditions: strain F: Pseudomonas fluorescens; Caso Peptone Bouillon, 24 hours at 30 °C; tested at 10, 30, 60 and 100 mg/l
Alcaligenes dentrificans = assay: as above; assay type: cell-based; conditions: strain D: Alcaligenes dentrificans; Caso Peptone Bouillon, 24 hours at 30 °C; tested at 10, 30, 60 and 100 mg/l
Bacillus subtilis = assay: as above; assay type: cell-based; conditions: strain A: Bacillus subtilis; Caso Peptone Bouillon, 24 hours at 30 °C; tested at 10, 30, 60 and 100 mg/l
[1] = Solubility of the isolated product (water, alcohol); assay type: physicochemical

Molecule | minimal inhibiting concentration B (Serratia marcescens) [µg/mL] | minimal inhibiting concentration C (Enterobacter aerogenes) [µg/mL] | minimal inhibiting concentration E (Proteus vulgaris) [µg/mL] | Effect after 24 h 10 (bacterial mixed culture) | Effect after 24 h 30 (bacterial mixed culture) | Effect after 24 h 60 (bacterial mixed culture) | minimal inhibiting concentration F (Pseudomonas fluorescens) [µg/mL] | minimal inhibiting concentration D (Alcaligenes dentrificans) [µg/mL] | minimal inhibiting concentration A (Bacillus subtilis) [µg/mL] | solubility in alcohol ([1]; alcohol) | solubility in water [1] | Effect after 24 h 100 mg/l (bacterial mixed culture) | MIC (Serratia marcescens) [µg/mL] | MIC (Enterobacter aerogenes; Klebsiella aerogenes, 24 h) [µg/mL] | MIC (Proteus vulgaris) [µg/mL] | MIC (Pseudomonas fluorescens) [µg/mL] | MIC (Alcaligenes dentrificans) [µg/mL] | MIC (Bacillus subtilis) [µg/mL] | solubility ([1]; in water) [µg/mL]
[(n-C4H9)3P n-C14H29]^+(ICIBr]^- [Example 9] | 30 | 30 | 10 | - | - | - | 30 | 10 | 10 |  |  |  |  |  |  |  |  |  | 
[(n-C4H9)3P n-C, 4H29]^+[ICI2]^- [Example 8] | 30 | 30 | 10 | - | - | - | 30 | 10 | 10 |  |  |  |  |  |  |  |  |  | 
[(CH3)2N(CH2C6H5) n-C14H29]3^+[Fe(CN)6]^3- [Example 4] | <100 | <100 | <100 |  |  |  | <100 | <100 | <100 |  |  |  |  |  |  |  |  |  | 
CCCCCCCCCCCCCC[P+](CCCC)(CCCC)CCCC [Example 3, [(n-C4H9)3P n-C14H29]^+NO3^-] | 30 | 10 | 10 | (-) (1-10 colonies, bacteria killed for the most part) | (-) (1-10 colonies, bacteria killed for the most part) | - | 30 | 10 | 10 | readily soluble in alcohol | difficultly soluble in water | - |  |  |  |  |  |  | 
CCCCCCCCCCCCCC[P+](CCCC)(CCCC)CCCC [Example 7, [(n-C4H9)3P n-C14H29]^+[lO4]^-] | 30 | 30 | 10 | (-) (1-10 colonies, bacteria killed for the most part) | - | - | 30 | 10 | 10 |  | difficultly soluble in water | - |  |  |  |  |  |  | 
CCCCCCCCCCCCCC[N+](C)(C)Cc1ccccc1 [Example 5, [(CH3)2N(CH2C6H5)n-C14H29]^+[S2P(O^iC3H7)2]^-] |  |  |  |  | (-) (1-10 colonies, bacteria killed for the most part) | - |  |  |  |  | difficultly soluble in water | - | < 100 | < 100 | < 100 | < 100 | < 100 | < 100 | 
CCCCCCCCCCCCCC[P+](CCCC)(CCCC)CCCC [Example 6, ([n-C4H9)3P n-C14H29]^+[B(C6H5)4]^-] |  |  |  |  |  |  |  |  |  |  |  |  |  |  |  |  |  |  | ≤ 20
CCCCCCCCCCCCCC[P+](CCCC)(CCCC)CCCC [Example 2, [(n-C4H9)3P n-C14H29]^+HSO4-] |  | 10 |  | - | - | - |  |  |  |  | optionally miscible with water |  | 30 |  | 10 | 30 | 10 | 10 | 
[(n-C4H9)3P n-G14H29]^+SCN^- [Example 1] | 30 | 10 | 10 | - | - | - | 30 | 10 | 10 |  |  | - |  |  |  |  |  |  | 
